Measurements: ChEMBL document CHEMBL1201862, “PubChem BioAssay data set” (2004)
Activity calls are given as the source filed them.

How the values were obtained:
[1] = biological target: G2/mitotic-specific cyclin-B1 (Homo sapiens, UniProt P14635); assay: Counterscreen assay for inhibitors of Wee1 degradation: dose response cell-based assay to identify inhibitors of cyclin B degradation. [Related pubchem assays: 1410, 1321 ]; assay type: functional
Wee1-like protein kinase = Wee1-like protein kinase (Homo sapiens, UniProt P30291); assay: Dose Response Cell-based Assay for Inhibitors of Wee1 Degradation. [Related pubchem assays: 1410, 1321 ]; assay type: functional
[2] = biological target: Luciferin 4-monooxygenase (Photinus pyralis, UniProt P08659); assay: Counter Screen for Luciferase-based Assay Positives. [Related pubchem assays: 620, 618, 411 ]
HT-1080 = assay: cytotoxicity in HT1080 fibrosarcoma cells, cell-based, fluorescence readout (AID 620); assay type: functional; settings: Homo sapiens
[3] = A549 cell cytotoxicity, dose response, cytotoxicity control, plate reader, cherry-pick, antagonist series (AID 743412); assay type: functional, cell-based
[4] = LGR2 antagonists, dose response, cell-based, HEK293, CRE-luciferase reporter, cherry pick, set 2 (AID 743343); assay type: functional;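 also: transfected cells were stimulated with diluted bursicon conditioned medium after compound addition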
[5] = MC4R antagonists, dose response, counter-screen for LGR2 antagonist project, cell-based, plate reader, cherry pick (AID 743444); assay type: functional;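 also: transfected HEK 293 cells stimulated with alpha-MSH peptide; potency of inhibitors of the alpha-MSH evoked signal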
[6] = HEK293 cell cytotoxicity, dose response, cytotoxicity control, plate reader, cherry-picked samples (AID 743446); assay type: functional, cell-based
[7] = Counterscreen for IDE inhibitors: Luminescence-based cell-based high throughput dose response assay to identify compounds that are cytotoxic to HEK cells. [Related pubchem assays: 434962 (Primary screen (IDE inhibitors in singlicate)), 449730 (Counterscreen (Cytotoxicity in triplicate)), 435028 (Confirmation (IDE inhibitors in triplicate)) …; assay type: functional; settings: HEK293
Insulin-degrading enzyme = biological target: T1, Insulin-degrading enzyme (Homo sapiens, UniProt P14735); assay: Dose Response: Fluorescence polarization-based cell-based high throughput dose response assay for inhibitors of insulin-degrading enzyme (IDE). [Related pubchem assays: 434962 (Primary screen (IDE inhibitors in singlicate)), 449730 (Counterscreen (Cytotoxicity in triplicate)), 435028 (Confirmation (IDE inhibitors in triplicate)), 434984 (Summary …; assay type: functional
T1 sequence (P14735 whole entry): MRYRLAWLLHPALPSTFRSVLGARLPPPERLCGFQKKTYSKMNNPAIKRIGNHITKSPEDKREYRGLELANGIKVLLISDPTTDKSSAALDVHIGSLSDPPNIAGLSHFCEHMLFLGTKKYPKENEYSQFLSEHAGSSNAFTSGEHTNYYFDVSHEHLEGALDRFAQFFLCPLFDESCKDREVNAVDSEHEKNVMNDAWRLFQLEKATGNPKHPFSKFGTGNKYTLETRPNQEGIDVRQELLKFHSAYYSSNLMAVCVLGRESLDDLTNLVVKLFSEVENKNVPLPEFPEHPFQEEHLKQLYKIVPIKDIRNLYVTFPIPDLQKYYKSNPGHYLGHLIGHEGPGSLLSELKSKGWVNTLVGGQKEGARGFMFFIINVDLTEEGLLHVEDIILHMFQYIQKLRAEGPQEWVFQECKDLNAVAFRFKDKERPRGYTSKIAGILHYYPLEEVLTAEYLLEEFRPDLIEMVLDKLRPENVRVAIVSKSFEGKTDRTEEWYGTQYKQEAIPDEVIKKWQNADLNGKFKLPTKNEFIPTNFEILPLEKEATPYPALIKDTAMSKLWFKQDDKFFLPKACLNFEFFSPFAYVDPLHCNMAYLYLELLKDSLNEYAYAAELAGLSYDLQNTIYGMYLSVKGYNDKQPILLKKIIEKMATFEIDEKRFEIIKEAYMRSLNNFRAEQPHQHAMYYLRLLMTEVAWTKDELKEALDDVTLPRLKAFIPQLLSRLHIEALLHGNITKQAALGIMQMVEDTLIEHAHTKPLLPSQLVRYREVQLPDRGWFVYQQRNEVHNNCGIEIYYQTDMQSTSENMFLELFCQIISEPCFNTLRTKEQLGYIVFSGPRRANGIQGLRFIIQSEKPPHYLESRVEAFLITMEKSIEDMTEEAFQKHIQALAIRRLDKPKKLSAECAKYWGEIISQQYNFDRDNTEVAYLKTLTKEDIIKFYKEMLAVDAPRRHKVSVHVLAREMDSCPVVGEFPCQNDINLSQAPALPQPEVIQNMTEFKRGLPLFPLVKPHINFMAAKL

[8] = inhibitors of Bluetongue virus cytopathic effect, confirmation, arbovirus, BSR cells (AID 1250); assay type: functional;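 also: protection from viral cytopathic effect measured as cell viability by ATP luminescence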
[9] = Luminescence Cell-Based Dose Retest to Confirm Inhibitors of Cancer Stem Cells. [Related pubchem assays (depositor defined):AID2717, AID2721]; assay type: functional; settings: Homo sapiens

Luciferin 4-monooxygenase, sequence (P08659 whole entry): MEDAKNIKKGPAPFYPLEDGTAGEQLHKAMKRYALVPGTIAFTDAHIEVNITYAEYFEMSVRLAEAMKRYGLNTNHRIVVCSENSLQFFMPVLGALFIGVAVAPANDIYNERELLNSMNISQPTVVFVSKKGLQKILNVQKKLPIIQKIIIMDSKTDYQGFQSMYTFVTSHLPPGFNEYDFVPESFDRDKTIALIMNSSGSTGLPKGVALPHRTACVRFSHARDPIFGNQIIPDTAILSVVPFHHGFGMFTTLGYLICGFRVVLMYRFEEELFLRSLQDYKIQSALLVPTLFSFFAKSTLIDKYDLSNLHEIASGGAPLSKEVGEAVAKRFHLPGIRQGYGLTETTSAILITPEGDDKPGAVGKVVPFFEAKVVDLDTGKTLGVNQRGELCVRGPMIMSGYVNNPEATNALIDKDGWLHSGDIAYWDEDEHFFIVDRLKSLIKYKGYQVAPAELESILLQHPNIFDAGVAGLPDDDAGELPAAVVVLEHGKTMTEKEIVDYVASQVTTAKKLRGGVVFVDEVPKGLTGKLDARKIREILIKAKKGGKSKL
Wee1-like protein kinase, sequence (P30291 whole entry): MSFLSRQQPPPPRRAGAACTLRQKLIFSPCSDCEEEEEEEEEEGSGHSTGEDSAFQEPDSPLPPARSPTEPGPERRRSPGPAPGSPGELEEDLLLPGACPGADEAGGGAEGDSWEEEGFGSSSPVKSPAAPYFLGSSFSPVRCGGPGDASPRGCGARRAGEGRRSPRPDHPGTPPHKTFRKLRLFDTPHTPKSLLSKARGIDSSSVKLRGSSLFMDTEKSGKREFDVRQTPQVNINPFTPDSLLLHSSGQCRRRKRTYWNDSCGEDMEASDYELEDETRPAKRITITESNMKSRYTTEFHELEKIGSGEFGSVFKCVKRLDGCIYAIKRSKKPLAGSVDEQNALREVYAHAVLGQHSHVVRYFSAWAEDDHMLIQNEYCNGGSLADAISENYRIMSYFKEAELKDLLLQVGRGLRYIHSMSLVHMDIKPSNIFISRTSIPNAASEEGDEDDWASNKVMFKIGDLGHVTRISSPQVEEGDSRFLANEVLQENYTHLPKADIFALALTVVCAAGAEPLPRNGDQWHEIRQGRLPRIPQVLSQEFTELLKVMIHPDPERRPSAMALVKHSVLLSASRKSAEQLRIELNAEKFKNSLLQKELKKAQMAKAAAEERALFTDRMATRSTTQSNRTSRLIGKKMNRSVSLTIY
G2/mitotic-specific cyclin-B1, sequence (P14635 whole entry): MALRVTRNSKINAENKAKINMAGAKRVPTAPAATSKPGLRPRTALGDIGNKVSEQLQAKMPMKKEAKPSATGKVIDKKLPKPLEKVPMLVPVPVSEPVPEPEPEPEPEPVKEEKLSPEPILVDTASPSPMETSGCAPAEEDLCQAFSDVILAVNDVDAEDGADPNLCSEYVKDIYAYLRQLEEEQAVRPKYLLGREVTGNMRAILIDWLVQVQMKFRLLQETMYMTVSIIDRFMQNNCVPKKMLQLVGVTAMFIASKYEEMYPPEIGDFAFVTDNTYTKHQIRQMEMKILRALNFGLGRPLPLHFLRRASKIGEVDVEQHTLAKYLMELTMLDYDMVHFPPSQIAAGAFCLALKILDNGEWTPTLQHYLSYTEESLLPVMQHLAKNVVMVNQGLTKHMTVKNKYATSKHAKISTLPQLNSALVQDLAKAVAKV

**Q.** Which EC50 [1] does the source give for O=C(COc1ccc(C(=O)c2ccc(F)cc2)cc1)NCc1ccc(F)cc1 here?
**A.** > 49.7 µM (not active)

**Q.** What about the EC50 (Wee1-like protein kinase) of the same compound?
**A.** > 49.7 µM (not active)

**Q.** For CCOc1ccc(C(=O)NCCc2ccccc2)cc1, which EC50 [2] is on record?
**A.** 1.09 µM (active)

**Q.** What about the EC50 (HT-1080) of the same compound?
**A.** > 50 µM (not active)

**Q.** What about the AC50 [3] of the same compound?
**A.** > 52 µM (inactive)

**Q.** And the AC50 [4]?
**A.** 4.83 µM (active)

**Q.** What about the AC50 [5] of the same compound?
**A.** 3.43 µM (active)

**Q.** And the AC50 [6]?
**A.** > 52 µM (inactive)

**Q.** For CCOc1ccccc1-n1c(SCC(=O)N2CCCc3ccccc32)nnc1-c1cccnc1, which IC50 [7] is on record?
**A.** 24.8 µM (not active)

**Q.** What about the IC50 (Insulin-degrading enzyme) of the same compound?
**A.** > 55.9 µM (not active)

**Q.** Which IC50 [8] does the source give for CC(C)(Oc1ccc(Cl)cc1)C(=O)NC1=NN(c2ccccc2)C(=O)C1 here?
**A.** 31.8 µM (active)

**Q.** What about the AC50 [9] of the same compound?
**A.** 3.91 µM (active)
